From patent EP0298135A1, “Phenylalanine derivative and proteinase inhibitor” (Okamoto, Shosuke, priority 1987, dated 1989)
Where a name gives a salt, the structure may show the parent alone.

Assays:
Assay type in all cases: biochemical
human plasmin [1] = target: T1, human plasmin (Homo sapiens, UniProt P00747); test: Antiplasmin activity: inhibition of S-2251 decomposition; details: Table 2; substrate S-2251, pH 7.4, 37°C; read-out: Plasmin S-2251 (concentration I₅₀)
Protocol: (ii) Determination of inhibition activity on S-225l decomposition
An inhibitor sample is dissolved in a 0.05 M Tris-hydrochloric acid buffer solution (pH = 7.4) to bring the total volume to 400 µl. To this solution, 50 µl of a 3 mM S-225l solution is added and the mixture is incubated at a temperature of 37°C for 5 minutes in a constant temperature bath. Then 50 µl of a 0.2 casein unit/ml human plasmin is added and the mixture is incubated at a temperature of 37°C for 4 minutes. Thereafter, the reaction is stopped by adding 50 µl of 50% acetic acid.
Thus, the concentration I₅₀ (µmol) of the inhibitor sample, at which the absorbance is one half (i.e., l/2) of that obtained in the absence of the inhibitor, is determined.

human plasmin [2] = target: T1, human plasmin; test: Antiplasmin activity: inhibition of fibrin decomposition; details: Table 2; concentration at which fibrin dissolution time is extended twice, pH 7.4, 37°C; read-out: Plasmin Fibrin (concentration I₅₀)
Protocol: (i) Determination of inhibition activity on fibrin decomposition
An inhibitor sample is dissolved in a 0.l8 M borate-physiological salt buffer solution (pH = 7.4) to bring the total volume to 600 µl. To this buffer solution, 200 µl of a 0.2% bovine fibrinogen, l00 µl of a 0.3 casein unit/ml human plasmin solution, and l00 µl of a 50 unit/ml bovine thrombin solution, all dissolved in the above-mentioned buffer, are added at a temperature of 37°C in a constant temperature bath. The dissolution time of the fibrin mass formed above is then determined.

bovine thrombin [3] = target: T2, bovine thrombin (Bos taurus, UniProt P00735); test: Antithrombin activity: inhibition of S-2238 decomposition
Protocol: (ii) Determination of inhibition activity on S-2238 decomposition
An inhibitor sample is dissolved in a 0.05 M Tris-hydrochloric acid buffer solution (pH = 8.3) to bring the a total volume to 400 µl. To this solution, 50 µl of a 0.2 mM S-2238 solution is added and the mixture is incubated at a temperature of 37°C for 5 minutes in a constant temperature bath. Then 50 µl of a 0.2 unit/ml bovine thrombin solution is added thereto and the absorbance, at 405 nm, of the p-nitroaniline formed per minute is determined at a temperature of 37°C by using the so-called initial velocity method. Thus, the concentration I₅₀ (µmol) of the inhibitor sample, at which the absorbance is one half (i.e., l/2) of that obtained in the absence of the inhibitor sample, is determined.

human urokinase = human urokinase (Homo sapiens, UniProt P00749); test: Antiurokinase activity: inhibition of S-2444 decomposition; details: Table 2; substrate S-2444, pH 8.8, 37°C; read-out: Urokinase S-2444 (concentration I₅₀)
Protocol: Determination of inhibition activity for S-2444 decomposition
An inhibitor sample is dissolved in a 0.05 M Tris-hydrochloric acid buffer solution (pH = 8.8) to bring the total volume to 400 µl. To this solution, 50 µl of a l mM S-2444 solution is added and the mixture is incubated at a temperature of 37°C for 5 minutes in a constant temperature bath. Then 50 µl of a 500 unit/ml human urokinase is added and the mixture is incubated at a temperature of 37°C for 5 minutes. Thereafter, 50 µl of 50% acetic acid is added to terminate the reaction. The absorbance of the p-nitroaniline formed in the reaction mixture is measured at 405 nm. Thus, the concentration I₅₀ (µmol) of the inhibitor sample, at which the absorbance is one half (i.e., l/2) of that obtained in the absence of the inhibitor sample, is determined.

bovine thrombin [4] = target: T2, bovine thrombin; test: Antithrombin activity: inhibition of fibrin formation from fibrinogen
Protocol: (i) Determination of inhibition activity against fibrin formation
An inhibitor sample is dissolved in a 0.l8 M borate-physiological salt buffer solution (pH = 7.4) to bring the total volume to 500 µl. To this solution, 400 µl of a 0.2% bovine fibrinogen solution and l00 µl of a 4 unit/ml bovine thrombin solution are added at a temperature of 37°C in a constant temperature bath. Thus, a coagulation time is determined. The inhibitor concentration I₅₀ (µmol), at which the coagulation time obtained in the absence of the inhibitor is extended twice, is determined.

human plasma kallikrein = human plasma kallikrein (Homo sapiens, UniProt P03952); test: Anti-plasma kallikrein activity: inhibition of S-2302 decomposition; details: Table 2; substrate S-2302, pH 7.8, 37°C; read-out: Plasma Kallikrein S-2302 (concentration I₅₀)
Sequence of human plasma kallikrein (P03952 391-638 limits assumed): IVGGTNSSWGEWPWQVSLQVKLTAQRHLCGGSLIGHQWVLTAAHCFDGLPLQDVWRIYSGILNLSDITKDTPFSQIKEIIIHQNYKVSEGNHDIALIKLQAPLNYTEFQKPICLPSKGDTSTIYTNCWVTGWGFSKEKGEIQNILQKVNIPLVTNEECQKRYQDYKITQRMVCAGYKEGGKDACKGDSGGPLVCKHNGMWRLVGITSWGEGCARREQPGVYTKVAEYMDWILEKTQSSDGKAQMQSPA
Sequence of human plasma kallikrein (P03952 20-390 partner limits assumed): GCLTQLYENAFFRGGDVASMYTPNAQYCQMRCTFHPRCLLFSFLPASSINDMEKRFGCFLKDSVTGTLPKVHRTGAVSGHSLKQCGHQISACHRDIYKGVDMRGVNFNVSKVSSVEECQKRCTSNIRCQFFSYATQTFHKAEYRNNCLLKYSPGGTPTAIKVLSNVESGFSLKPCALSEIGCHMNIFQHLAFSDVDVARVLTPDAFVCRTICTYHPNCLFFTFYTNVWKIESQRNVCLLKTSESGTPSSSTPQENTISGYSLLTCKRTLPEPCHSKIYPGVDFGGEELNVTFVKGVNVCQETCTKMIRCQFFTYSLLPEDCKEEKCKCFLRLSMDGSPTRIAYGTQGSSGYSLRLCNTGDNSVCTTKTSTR
Protocol: An inhibitor sample is dissolved in a 0.05 M Tris-hydrochloric acid buffer solution (pH = 7.8) to bring the total volume to 400 µl. […] Then, 50 µl of a 0.l2 unit/ml human plasma kallikrein is added and the mixture is incubated at a temperature of 37°C for 5 minutes. Thereafter, 50 µl of 50% acetic acid is added to terminate the reaction. […] Thus, the concentration I₅₀ (µmol) of the inhibitor sample, at which the absorbance is one half (i.e., l/2) of that obtained in the absence of the inhibitor sample, is determined.

bovine trypsin = target: T3, bovine trypsin (Bos taurus, UniProt P00760); test: Antitrypsin activity: inhibition of S-2238 decomposition; details: Table 2; substrate S-2238, pH 8.1, 37°C; read-out: Trypsin S-2238 (concentration I₅₀)
T3 sequence (P00760 24-246): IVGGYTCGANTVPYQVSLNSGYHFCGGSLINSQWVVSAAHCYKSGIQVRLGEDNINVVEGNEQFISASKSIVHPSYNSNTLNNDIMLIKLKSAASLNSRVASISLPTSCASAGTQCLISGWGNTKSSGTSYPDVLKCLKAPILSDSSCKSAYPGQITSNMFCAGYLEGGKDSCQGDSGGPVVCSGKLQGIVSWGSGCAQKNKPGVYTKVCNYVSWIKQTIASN
Protocol: Determination of inhibition activity against S-2238 decomposition An inhibitor sample is dissolved in a 0.05 M Tris-imidazole buffer solution (pH = 8.l) and l25 µl of a l mM S-2238 solution is added to bring the total volume to l.20 ml. The mixture is incubated at a temperature of 37°C for 5 minutes in a constant temperature bath. To this mixture, 0.05 ml of bovine trypsin is added and the absorbance, at 405 nm, of the p-nitroaniline formed per minute is determined at a temperature of 37°C by using the so-called initial velocity method. Thus, the concentration I₅₀ (µmol) of the inhibitor sample, at which the absorbance is one half (i.e., l/2) of that obtained in the absence of the inhibitor sample, is determined.

T1 sequence (P00747 581-810 limits assumed): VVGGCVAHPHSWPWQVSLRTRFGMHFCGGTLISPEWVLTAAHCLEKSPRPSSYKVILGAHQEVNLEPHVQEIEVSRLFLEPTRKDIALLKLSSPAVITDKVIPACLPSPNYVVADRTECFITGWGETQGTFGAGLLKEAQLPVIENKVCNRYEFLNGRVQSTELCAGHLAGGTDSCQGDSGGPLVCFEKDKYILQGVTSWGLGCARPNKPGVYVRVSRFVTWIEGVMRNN
T1 sequence (P00747 97-580 partner limits assumed): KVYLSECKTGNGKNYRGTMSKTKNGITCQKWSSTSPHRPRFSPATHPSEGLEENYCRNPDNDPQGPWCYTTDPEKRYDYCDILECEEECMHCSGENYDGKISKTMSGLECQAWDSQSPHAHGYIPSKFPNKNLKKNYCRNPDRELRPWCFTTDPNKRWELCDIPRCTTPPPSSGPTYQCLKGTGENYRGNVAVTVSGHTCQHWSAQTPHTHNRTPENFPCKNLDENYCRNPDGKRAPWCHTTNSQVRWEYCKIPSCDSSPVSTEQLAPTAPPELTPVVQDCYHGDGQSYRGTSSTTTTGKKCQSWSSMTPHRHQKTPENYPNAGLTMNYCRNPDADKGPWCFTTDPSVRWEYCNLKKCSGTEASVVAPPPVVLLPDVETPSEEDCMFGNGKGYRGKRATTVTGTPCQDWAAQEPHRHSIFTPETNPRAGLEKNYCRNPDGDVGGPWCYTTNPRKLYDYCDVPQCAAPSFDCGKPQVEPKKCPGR

Compound: CCOC(=O)CC(O)CNC(=O)[C@H](Cc1ccccc1)NC(=O)CCCCN (some centres unmarked) [Compound No. 3]
- IC50 (human plasmin [1]): > 1000 µM
- IC50 (human plasmin [2]): > 1000 µM
- IC50 (bovine thrombin [3]): > 1000 µM
- IC50 (human urokinase): > 1000 µM
- IC50 (bovine thrombin [4]): > 1000 µM

Compound: CN(Cc1ccncc1)C(=O)[C@H](Cc1ccccc1)NC(=O)CCCCCN [Compound No. 6, N-(6-aminocaproyl)-L-phenylalanine N-methyl-(4-pycoryl)amide dihydrochloride]
- IC50 (human plasmin [1]): > 1000 µM
- IC50 (human plasmin [2]): > 1000 µM
- IC50 (bovine thrombin [3]): > 500 µM
- IC50 (human plasma kallikrein): > 1000 µM
- IC50 (human urokinase): > 500 µM

Compound: N=C(N)Nc1ccc(C(=O)N[C@@H](Cc2ccc([N+](=O)[O-])cc2)C(=O)Nc2ccc(C(=O)c3ccccc3)cc2)cc1 [Compound No. 23, N-(4-guanidinobenzoyl)-4-nitro-L-phenylalaninine 4-benzoylanilide methanesulfonate]
- IC50 (human plasmin [1]): 89 µM
- IC50 (bovine trypsin): 0.43 µM
- IC50 (human plasma kallikrein): 11 µM
- IC50 (human urokinase): 11 µM

Compound: NCCCC(=O)N[C@@H](Cc1ccccc1)C(=O)Nc1ccc(C(=O)c2ccccc2)cc1 [compound 1]
- IC50 (human plasmin [1]): 23 µM
- IC50 (bovine thrombin [3]): > 200 µM

Compound: NCCCCCC(=O)N[C@@H](Cc1ccccc1)C(=O)Nc1ccc(C(=O)c2ccccc2)cc1 [compound 4]
- IC50 (human plasmin [1]): 39 µM
- IC50 (bovine trypsin): > 200 µM

Compound: NCCCCCC(=O)N[C@@H](Cc1ccc(O)cc1)C(=O)Nc1ccc(C(=O)c2ccccc2)cc1 [compound 7]
- IC50 (human plasmin [1]): > 100 µM
- IC50 (bovine thrombin [3]): > 180 µM
- IC50 (human plasma kallikrein): > 120 µM
- IC50 (human urokinase): 120 µM
- IC50 (bovine thrombin [4]): > 120 µM

Compound: NCCc1ccc(C(=O)N[C@@H](Cc2ccccc2)C(=O)Nc2ccc(C(=O)c3ccccc3)cc2)cc1 [compound 9]
- IC50 (human plasmin [1]): 30 µM
- IC50 (bovine trypsin): 16 µM
- IC50 (human plasma kallikrein): 31 µM
- IC50 (human urokinase): 100 µM

Compound: COc1ccc(NC(=O)[C@H](Cc2ccccc2)NC(=O)c2ccc(CCN)cc2)cn1 [compound 10, N-[4-(2-aminoethyl)benzoyl]-L-phenylalanine 3-(6-methoxypyridyl)amide dihydrochloride]
- IC50 (human plasmin [1]): 830 µM
- IC50 (human plasmin [2]): 970 µM
- IC50 (human plasma kallikrein): 85 µM

Compound: CC(=O)c1ccc(NC(=O)[C@H](Cc2ccccc2)NC(=O)c2ccc(C(=N)N)cc2)cc1 [compound 11, N-(4-amidinobenzoyl)-L-phenylalanine 4-acetylanilide hydroiodic acid]
- IC50 (human plasmin [1]): 23 µM
- IC50 (bovine trypsin): 3.6 µM
- IC50 (human plasmin [2]): 21 µM
- IC50 (human plasma kallikrein): 0.8 µM
- IC50 (human urokinase): 13 µM

Compound: CC(=O)c1ccc(NC(=O)[C@H](Cc2ccc(OCc3ccccc3)cc2)NC(=O)c2ccc(C(=N)N)cc2)cc1 [compound 12, N-(4-amidinobenzoyl)-4-benzyloxy-L-phenylalanine 4-acetylanilide hydroiodic acid]
- IC50 (human plasmin [1]): 2.2 µM
- IC50 (bovine trypsin): 0.75 µM
- IC50 (human plasmin [2]): 0.98 µM
- IC50 (human plasma kallikrein): 0.3 µM
- IC50 (human urokinase): 4 µM

Compound: Cc1ccc(NC(=O)[C@H](Cc2ccccc2)NC(=O)c2ccc(NC(=N)N)cc2)cc1 [compound 13, N-(4-guanidinobenzoyl)-L-phenylalanine 4-methylanilide hydrochloride]
- IC50 (human plasmin [1]): > 1000 µM
- IC50 (bovine trypsin): 1.3 µM
- IC50 (human plasmin [2]): > 200 µM
- IC50 (human plasma kallikrein): 4.2 µM
- IC50 (human urokinase): 420 µM

Compound: N=C(N)Nc1ccc(C(=O)N[C@@H](Cc2ccccc2)C(=O)Nc2ccc(C(=O)c3ccccc3)cc2)cc1 [compound 16]
- IC50 (bovine trypsin): 1.5 µM
- IC50 (human plasma kallikrein): 3.6 µM
- IC50 (human urokinase): 40 µM

Compound: COc1ccc(NC(=O)[C@H](Cc2ccccc2)NC(=O)c2ccc(NC(=N)N)cc2)cn1 [compound 18]
- IC50 (bovine trypsin): 35 µM
- IC50 (bovine thrombin [3]): > 1000 µM
- IC50 (human plasma kallikrein): 12 µM
- IC50 (human urokinase): 630 µM
- IC50 (bovine thrombin [4]): > 1000 µM

Compound: CN(Cc1ccncc1)C(=O)[C@H](Cc1ccccc1)NC(=O)c1ccc(NC(=N)N)cc1 [compound 19]
- IC50 (human plasmin [1]): > 1000 µM
- IC50 (human plasmin [2]): > 1000 µM
- IC50 (human plasma kallikrein): 1000 µM
- IC50 (bovine thrombin [4]): > 1000 µM

Compound: CC1CCC(NC(=O)[C@H](Cc2ccccc2)NC(=O)c2ccc(NC(=N)N)cc2)CC1C (some centres unmarked) [compound 21]
- IC50 (human plasmin [1]): 450 µM
- IC50 (bovine trypsin): 6 µM
- IC50 (bovine thrombin [3]): 400 µM
- IC50 (human plasma kallikrein): 15 µM
- IC50 (human urokinase): 740 µM
- IC50 (bovine thrombin [4]): > 100 µM

Compound: Cc1ccc(NC(=O)[C@H](Cc2ccc(OCc3ccccc3)cc2)NC(=O)c2ccc(NC(=N)N)cc2)cc1C [compound 24]
- IC50 (human plasmin [1]): 21 µM
- IC50 (bovine trypsin): 9.1 µM
- IC50 (human plasmin [2]): 16 µM
- IC50 (human plasma kallikrein): 5.7 µM
- IC50 (human urokinase): 240 µM

Compound: COc1ccc(NC(=O)[C@H](Cc2ccc(OCc3ccccc3)cc2)NC(=O)c2ccc(NC(=N)N)cc2)cn1 [compound 25]
- IC50 (human plasmin [1]): 160 µM
- IC50 (bovine trypsin): 17 µM
- IC50 (human plasmin [2]): 48 µM
- IC50 (human plasma kallikrein): 12 µM
- IC50 (bovine thrombin [4]): > 100 µM

Compound: CN(Cc1ccccc1)C(=O)[C@H](Cc1ccc(OCc2ccccc2)cc1)NC(=O)c1ccc(NC(=N)N)cc1 [compound 28]
- IC50 (human plasmin [1]): 140 µM
- IC50 (bovine trypsin): 110 µM
- IC50 (human plasma kallikrein): 170 µM

Compound: N=C(N)NCCCC(=O)N[C@@H](Cc1ccc([N+](=O)[O-])cc1)C(=O)Nc1ccc(C(=O)c2ccccc2)cc1 [compound 29]
- IC50 (human plasmin [1]): 120 µM
- IC50 (bovine trypsin): 17 µM
- IC50 (human plasmin [2]): 82 µM
- IC50 (human plasma kallikrein): 56 µM

Compound: N=C(N)NC[C@H]1CC[C@H](C(=O)N[C@@H](Cc2ccc([N+](=O)[O-])cc2)C(=O)Nc2ccc(C(=O)c3ccccc3)cc2)CC1 [compound 31, N-(trans-4-guanidinomethylcyclohexylcarbonyl)-4-nitro-L-phenylalanine 4-benzoylanilide methane sulfonate]
- IC50 (human plasmin [1]): > 100 µM
- IC50 (human plasma kallikrein): > 100 µM
- IC50 (human urokinase): > 100 µM

Compound: N-(4-guanidinobenzoyl)-L-phenylalanine 4-cis/trans-methylcyclohexylamide hydrochloride [Compound No. 20]
- IC50 (human plasmin [1]): 140 µM
- IC50 (bovine trypsin): 15 µM
- IC50 (human plasmin [2]): 73 µM
- IC50 (human plasma kallikrein): 45 µM
- IC50 (human urokinase): 310 µM
- IC50 (bovine thrombin [4]; Table 2, concentration at which coagulation time is extended twice, bovine fibrinogen, pH 7.4, 37°C, read-out: Thrombin Fibrinogen (concentration I₅₀)): > 100 µM
